Assay results from patent US20070078262A1, “Thiomorpholino steroid compounds, the use thereof for the preparation of meiosis-regulating medicaments and method for the preparation thereof” (SCHERING AKTIENGESELLSCHAFT, priority 2003, published 2007).
Where “and” joins values, the source holds several entries; their conditions need not be identical. Identical values can stand only once.

Columns and labels:
[1] = tested on: Cumulus Enclosed Oocytes (CEOs); assay: Cumulus enclosed oocyte assay (meiosis activation in Hx-medium); type: cell-based, mice (C57BL/6J×DBA/2J F1); settings: for Meiosis Activation [%]: in the presence of Hx in CEOs
Text: Activation of MI arrested oocytes can be assessed by the disappearance of the germinal vesicle (GV). The disappearance of the GV, called germinal vesicle breakdown (GVB) is followed by the extrusion of the first polar body (PB) (C. Grøndahl, J. L. Ottesen, M. Lessi, P. Faarup, A. Murray, F C Grønvald, C. Hegele-Hartung, I. Ahnfelt-Rønne, “Meiosis-activating sterol promotes resumption of meiosis in mouse oocytes cultured in vitro in contrast to related oxysterols”, Biol. Reprod., 58, 1297-1302 (1998); C. Hegele-Hartung, J. Kuhnke, M. Lessi, C. Grøndahl, J. Ottesen, H. M. Beier, S. Eisner, U. Eichenlaub-Ritter, “Nuclear and cytoplasmic maturation of mouse oocytes after treatment with synthetic meiosis-activating sterol in vitro”, Biol. Reprod., 61, 1362-1372 (1999)).
Cumulus Enclosed Oocytes (CEOs) were obtained from immature female mice (C57BL/6J×DBA/2J F1) weighing 13-16 grams, that were kept under controlled temperature (20-22° C.), light (lights on 06:00-18:00) and relative humidity (50-70%). The mice received an intra-peritoneal injection of 0.2 ml gonadotropins containing 20 IU FSH. 48 hours later the animals were killed by cervical dislocation. The ovaries were dissected out and the oocytes were isolated in Hx-medium (see below) under a stereomicroscope by manual rupture of the follicles using a pair of 27-gauge needles. Cumulus enclosed oocytes displaying an intact germinal vesicle were placed in α-minimum essential medium (α-MEM without ribonucleosides supplemented with 8 mg/ml Human Serum Albumin (HSA), 0.23 mM pyruvate, 2 mM glutamine, 100 IU/ml penicillin and 100 μg/ml streptomycin). To maintain the oocytes in the germinal vesicle stage this medium was supplemented with 3 mM hypoxanthine, designated as Hx-medium.
The CEOs (35-45 CEOs in 0.4 ml Hx-medium) were cultured in a humidified atmosphere of 5% CO2 in air for 24 hours at 37° C. One control well (identical medium with no addition of test compound) was always cultured simultaneously with test wells.
By the end of the culture period the number of CEOs with germical vesicle (GV), germinal vesicle breakdown (GVB) and polar bodies (PB), respectively, were counted. The % GVB, defined as the percentage of CEOs undergoing GVB per total number of CEOs in that well, was calculated as: % GVB=(number of GVB+number of PB/total number of CEOs)×100
The % PB was defined as the percentage of CEOs displaying one extruded polar body per total number of CEOs in that well.
For each compound two experiments were performed and the results compared to Hx-medium as a control and FF-MAS at a concentration of 10 μM.

mouse oocytes = assay: In vitro fertilization (IVF) after in vitro maturation of oocytes; type: cell-based, mice (C57BL/6J×DBA/2J F1); settings: in vitro maturation without hypoxanthine, then IVF; n=18
Procedure: Changes in the subsequent IVF are therefore probably due to effects of the test compounds on cytoplasmic maturation.
Immature female mice (C57BL/6J×DBA/2J F1) in the age of 21-24 days were used as oocyte donors. Animals were given an i.p. injection of 10 IU pregnant mare serum gonadotropin (PMSG) to induce follicular growth. Animals were killed by cervical dislocation 48 hours later and the ovaries were dissected out. As sperm donors eight week old male mice (C57BL/6J×DBA/2J F1) were used.
Oocytes were isolated from the ovaries by manual rupture of the follicles using a pair of 27-gauge needles. Spherical naked oocytes (NkO) and CEOs displaying an intact GV were selected and placed in α-minimum essential medium (α-MEM without ribonucleosides, Gibco BRL, Gaithersburg; Cat. No. 22561) supplemented with 8 mg/ml human serum albumin (HSA), 0.23 mM pyruvate, 2 mM glutamine, 100 IU/ml penicillin and 100 μg/ml streptomycin.
The oocytes were rinsed three times in culture medium without oil overlay in 4-well multidishes containing 0.4 ml of the respective oocyte culture medium.
The oocyte culture medium was supplemented with 6.4% Fetal Bovine Serum (FBS). Solutions of novel compound IA and of the two compounds in comparison as mentioned were prepared from a stock solution containing 1 mg/ml of compound dissolved in absolute ethanol. The control group was cultured with a corresponding amount of ethanol.
After a culture time of 18-19 hours oocytes were further processed for in vitro fertilization. […] Oocytes were briefly washed without any test compound and subsequently transferred to the insemination dishes prepared in advance, which contained approximately 600.000 capacitated sperm cells per 500 μl IVF medium (obtained from the epididymides of male mice). The dishes were then incubated under defined gas conditions (5% CO2 in air) at 37° C. in a modified α-MEM IVF medium supplemented with 8 mg/ml HSA, 0.23 mM pyruvate, 100 IU penicillin/ml and 100 μg streptomycin/ml as described above for oocyte maturation.
Examination of the oocytes was carried out 22-24 hours after insemination in order to check fertilization and to record the number of pronucleus (PN) and 2-cell stage embryos. The fertilization rate was determined as the number of oocytes that had reached the PN or 2-cell embryo stage, relative to the total number inseminated.

[2] = tested on: in vitro fertilized ova (2-cell embryos); assay: Retransfer study / fertility trial (in vitro fertilized 2-cell embryos transferred into foster mothers); type: in vivo, mice; settings: for No. of Implantation Spots: Odds / No. of Viable Fetuses: Odds: successes divided by failures; for No. of Implantation Spots: Failures: transferred ova minus implantation spots; for No. of Viable Fetuses: Failures: transferred ova minus viable fetuses; for Odds Ratio for comparison to FF-MAS, No. of Implantation Spots / Odds Ratio for comparison to FF-MAS, No. of Viable Fetuses: versus FF-MAS 10 μM; for shows significant improvement of odds versus vehicle control, number of implantation spots: 95% confidence interval of odds ratio, all doses tested
Procedure: In vitro fertilization was performed as described above for the IVF experiment.
One day before the retransfer female recipient mice (foster mothers) in pro-estrus cycle state were mated with vasectomized males in order to trigger pseudogestation. One day later a vaginal check was performed. Animals with a positive, sperm-free vaginal plug (successful mating) entered the study. This day was designated day 0 of gestation (=day 0 after the sterile copulation, day 0 p.c.). […] 2-cell embryos were transferred into the right tube of the foster mothers on day 0 after the sterile copulation under anesthesia. The contra-lateral tube remained unused (check for pseudogestation). The foster mothers were sacrified on day 19 of gestation. The fetuses were removed and examined. The ovaries and uteri were removed immediately to record the number of implantation sites, viable and dead fetuses and resorptions. Apparently non-pregnant uteri were placed in a 10% aqueous solution of ammonium sulfide for about 10 min to stain possible implantation sites in the endometrium. The viable fetuses were individually weighed and their sex determined by inspection of their gonads.
In a fertility trial 269 mice were randomized into 6 groups and implanted with 7-10 in vitro fertilized ova. The in vitro fertilization took place in the presence of vehicle (group 1) or of a substance (groups 2 to 6).
The fertility raising effect of the substances in comparison to the vehicle control was of main interest. Moreover, an improvement compared to the substance FF-MAS was also investigated.
Variables of primary interest are the number of implantation spots and the number of viable fetuses.
The data for implantation spots as well as for viable fetuses have to be considered to have binary character, i.e. it can be expressed in rates or in a number of successes and failures with respect to the number of transferred ova. Therefore, methods as outlined by D. Collett: “Modelling Binary Data”, 2nd edition, Chapman & Hall/CRC, Boca Raton, constitute appropriate approaches to the data analysis.
The odds ratio of one group as compared to the other is defined as: odds ratio (group 1, group 2)=or1,2=odds (group 1)/odds (group 2)
where the odds of a group can be estimated by the number of successes divided by the number of failures in that group.
To reach statements about the significance of any findings, 95% confidence-intervals for the odds ratios are computed as: [ exp(log(or1,2)[…]1.96·se(log(or1,2))); exp(log(or1,2)+1.96·se(log(or1,2)))]
wherein se(log(or1,2)) is the standard error of the log odds ratio (see D. Collett (2003) for the corresponding formula).
As a basis for the computation of odds ratios, the number of successes (i.e., the number of implantation spots of number of viable fetuses) and failures (i.e., the number of transferred ova minus the number of implantation spots or number of viable fetuses) are computed for all groups.

follicle culture system = assay: Follicle culture system (induction of maturation); type: cell-based
rat oocytes (CEO and DO) = settings: micromolar concentrations; CEO and DO cultured in vitro; cited from earlier work
[3] = Solubility in water (measured by turbimetry)
[4] = 10 μM, Table 1, two experiments per compound, FF-MAS run in parallel

SMILES | Meiosis Activation [%] [1, 4] | Meiosis Activation [%] ([1]; 10 μM, Table 2) | fertilization rates of mouse oocytes compared to vehicle control (FIG. 3) (mouse oocytes) | No. of Implantation Spots: Success ([2]; 10 μM) | No. of Viable Fetuses: Success ([2]; 10 μM) | Odds Ratio for comparison to vehicle control, No. of Implantation Spots ([2]; 10 μM) | Odds Ratio for comparison to vehicle control, No. of Viable Fetuses ([2]; 10 μM) | No. of Implantation Spots: Odds ([2]; 10 μM) | No. of Viable Fetuses: Odds ([2]; 10 μM) | No. of Implantation Spots: Failures ([2]; 10 μM) | No. of Viable Fetuses: Failures ([2]; 10 μM) | shows significant improvement of odds versus vehicle control, number of implantation spots [2] | other results
C[C@H](CN1CCSCC1)[C@H]1CCC2=C3CC[C@H]4C(C)(C)[C@@H](O)CC[C@]4(C)[C@H]3CC[C@@]21C [Compound IB, (20S)-20-[(thiomorpholin-4-yl)methyl]-4,4-dimethyl-5α-pregna-8(14)-en-3β-ol] | 15% | – | – | – | – | – | – | – | – | – | – | – | –
C[C@H](CN1CCSCC1)[C@H]1CC=C2C3=C(CC[C@@]21C)[C@@]1(C)CC[C@H](O)C[C@@H]1CC3 [Compound IC, (20S)-20-[(thiomorpholin-4-yl)methyl]-5α-pregna-8,14-dien-3β-ol] | 64% and 69% | – | – | – | – | – | – | – | – | – | – | – | –
C[C@H](CN1CCSCC1)[C@H]1CC[C@H]2C3=CC=C4C(C)(C)[C@@H](O)CC[C@]4(C)[C@H]3CC[C@]12C [Compound ID, (20S)-20-[(thiomorpholin-4-yl)methyl]-4,4-dimethyl-pregna-5,7-dien-3β-ol] | 89% and 58% | – | – | – | – | – | – | – | – | – | – | – | –
C[C@H](CN1CCSCC1)[C@H]1CCC2=C3CC[C@H]4C[C@@H](O)CC[C@]4(C)[C@H]3CC[C@@]21C [Compound IE, (20S)20-[(thiomorpholin-4-yl)methyl]-5α-pregna-8(14)-en-3β-ol] | 96% and 80% | 60% | – | – | – | – | – | – | – | – | – | – | Meiosis Activation [%] ([1]; 1 μM, Table 2): 44%; Meiosis Activation [%] ([1]; 3 μM, Table 2): 24%; efficiency of meiosis activation among the compounds tested ([1]; CEOs in the presence of Hx): the most efficient compound tested
C[C@H](CN1CCCCC1)[C@H]1CC=C2C3=C(CC[C@@]21C)[C@@]1(C)CC[C@H](O)C(C)(C)[C@@H]1CC3 [Compound No. 2, (20S)-20-[(piperidin-1-yl)methyl]-4,4-dimethyl-5α-pregna-8,14-dien-3β-ol] | – | 48% | higher fertilization rates | 90 | 37 | 1.08 | 1.24 | 0.27 | 0.10 | 332 | 385 | Neither | No. of Implantation Spots: Success ([2]; 1 μM): 97; No. of Viable Fetuses: Success ([2]; 1 μM): 32; Odds Ratio for comparison to vehicle control, No. of Implantation Spots ([2]; 1 μM): 1.09; Odds Ratio for comparison to vehicle control, No. of Viable Fetuses ([2]; 1 μM): 0.98; No. of Implantation Spots: Odds ([2]; 1 μM): 0.27; No. of Viable Fetuses: Odds ([2]; 1 μM): 0.08; No. of Implantation Spots: Failures ([2]; 1 μM): 357; No. of Viable Fetuses: Failures ([2]; 1 μM): 422; Odds Ratio for comparison to FF-MAS, No. of Implantation Spots ([2]; 1 μM): 0.91; Odds Ratio for comparison to FF-MAS, No. of Viable Fetuses ([2]; 1 μM): 0.66; Odds Ratio for comparison to FF-MAS, No. of Implantation Spots ([2]; 10 μM): 0.91; Odds Ratio for comparison to FF-MAS, No. of Viable Fetuses ([2]; 10 μM): 0.83
CC(C)=CCC[C@@H](C)[C@H]1CC=C2C3=C(CC[C@@]21C)[C@@]1(C)CC[C@H](O)C(C)(C)[C@@H]1CC3 [FF-MAS, 4,4-dimethyl-5α-cholesta-8,14,24-trien-3β-ol] | – | 24% | higher fertilization rates | 100 | 45 | 1.19 | 1.49 | 0.30 | 0.12 | 335 | 390 | Neither | implantation rate per transferred 2-cell embryos (FIG. 4) ([2]; FF-MAS 10 μM, compound IA 1 μM and 10 μM): higher numbers; induction of maturation / activation of meiosis in a follicle culture system (follicle culture system): not able to induce maturation; resumption of meiosis in rat oocytes arrested by IBMX (rat oocytes (CEO and DO)): able to induce resumption of meiosis in a dose-dependent manner; solubility [3]: < 0.1 µg/mL
